Results as given in ChEMBL document CHEMBL1955831, “Inhibitors of human histone deacetylase with potent activity against the African trypanosome Trypanosoma brucei” (Bioorg Med Chem Lett, 2012).
The source made the active and inactive calls. The rule behind the calls is not given here.

Tests used:
[1] = target: Histone deacetylase 9 (Homo sapiens) (UniProt Q9UKV0); assay: Inhibition of human recombinant HDAC9 expressed using baculovirus expression system using Flour- De-Lys as substrate after 3 hrs by fluorescence analysis
Histone deacetylase 9 (Homo sapiens), sequence (Q9UKV0 whole entry): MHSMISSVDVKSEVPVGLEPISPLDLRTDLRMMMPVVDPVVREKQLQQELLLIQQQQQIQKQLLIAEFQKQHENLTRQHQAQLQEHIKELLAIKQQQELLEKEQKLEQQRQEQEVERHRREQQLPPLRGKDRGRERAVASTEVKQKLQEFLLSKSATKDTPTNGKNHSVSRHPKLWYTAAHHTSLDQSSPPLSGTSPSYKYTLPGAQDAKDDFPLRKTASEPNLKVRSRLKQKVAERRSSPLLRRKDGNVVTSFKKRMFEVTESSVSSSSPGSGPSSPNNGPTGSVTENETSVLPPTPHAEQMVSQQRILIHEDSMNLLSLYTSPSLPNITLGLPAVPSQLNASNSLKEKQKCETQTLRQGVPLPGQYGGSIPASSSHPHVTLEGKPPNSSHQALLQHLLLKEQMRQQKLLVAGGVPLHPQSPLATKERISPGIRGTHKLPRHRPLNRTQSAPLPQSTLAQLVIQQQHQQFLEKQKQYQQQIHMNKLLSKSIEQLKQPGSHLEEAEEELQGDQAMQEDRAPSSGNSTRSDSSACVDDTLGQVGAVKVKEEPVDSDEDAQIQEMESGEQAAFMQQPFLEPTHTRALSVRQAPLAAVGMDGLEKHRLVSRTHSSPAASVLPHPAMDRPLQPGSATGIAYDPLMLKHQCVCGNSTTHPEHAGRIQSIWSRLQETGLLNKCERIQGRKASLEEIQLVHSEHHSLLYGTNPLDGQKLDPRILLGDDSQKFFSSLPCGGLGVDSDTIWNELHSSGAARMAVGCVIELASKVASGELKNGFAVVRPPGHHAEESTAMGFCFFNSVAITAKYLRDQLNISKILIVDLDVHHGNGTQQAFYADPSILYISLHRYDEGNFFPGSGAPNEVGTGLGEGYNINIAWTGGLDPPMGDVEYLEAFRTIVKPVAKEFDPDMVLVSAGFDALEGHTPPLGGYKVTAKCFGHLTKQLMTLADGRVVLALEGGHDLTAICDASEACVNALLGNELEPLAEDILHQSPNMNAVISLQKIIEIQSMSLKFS

Trypanosoma brucei = assay: Antitrypanosomal activity against bloodstream Trypanosoma brucei 427 assessed as cell death at 2 ug/ml within 4 hrs by Giemsa staining-based DMRB microscopic analysis
[2] = target: Histone deacetylase 4 (Homo sapiens) (UniProt P56524); assay: Inhibition of human recombinant HDAC4 expressed using baculovirus expression system using Flour- De-Lys as substrate after 3 hrs by fluorescence analysis
Histone deacetylase 4 (Homo sapiens), sequence (P56524 whole entry): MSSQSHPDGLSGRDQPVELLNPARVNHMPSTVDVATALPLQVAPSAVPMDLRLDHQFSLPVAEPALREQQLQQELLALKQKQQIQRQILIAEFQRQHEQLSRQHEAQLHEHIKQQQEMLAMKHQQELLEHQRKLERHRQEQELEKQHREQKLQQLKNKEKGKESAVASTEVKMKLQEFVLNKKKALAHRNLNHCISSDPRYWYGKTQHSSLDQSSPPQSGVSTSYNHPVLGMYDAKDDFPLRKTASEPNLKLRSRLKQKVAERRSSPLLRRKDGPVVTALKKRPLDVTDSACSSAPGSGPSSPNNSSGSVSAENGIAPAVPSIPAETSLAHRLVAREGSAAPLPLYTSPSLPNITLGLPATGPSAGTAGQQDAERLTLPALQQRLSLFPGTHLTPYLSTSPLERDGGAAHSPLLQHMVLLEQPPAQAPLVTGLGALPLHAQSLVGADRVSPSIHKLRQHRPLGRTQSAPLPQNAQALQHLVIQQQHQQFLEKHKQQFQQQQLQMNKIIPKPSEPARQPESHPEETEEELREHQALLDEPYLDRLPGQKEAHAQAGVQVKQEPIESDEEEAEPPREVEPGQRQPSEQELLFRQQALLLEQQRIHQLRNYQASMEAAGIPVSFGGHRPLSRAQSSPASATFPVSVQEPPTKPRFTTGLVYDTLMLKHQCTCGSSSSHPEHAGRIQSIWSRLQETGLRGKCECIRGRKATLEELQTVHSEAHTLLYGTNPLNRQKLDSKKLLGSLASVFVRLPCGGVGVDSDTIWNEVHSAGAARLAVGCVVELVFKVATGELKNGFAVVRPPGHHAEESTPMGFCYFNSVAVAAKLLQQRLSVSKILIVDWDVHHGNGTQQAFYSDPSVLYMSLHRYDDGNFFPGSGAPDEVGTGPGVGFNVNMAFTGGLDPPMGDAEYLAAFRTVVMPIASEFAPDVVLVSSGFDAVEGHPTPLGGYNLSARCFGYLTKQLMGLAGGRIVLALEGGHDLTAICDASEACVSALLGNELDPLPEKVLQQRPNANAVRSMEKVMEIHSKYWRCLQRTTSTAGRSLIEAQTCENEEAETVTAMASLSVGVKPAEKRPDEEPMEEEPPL

[3] = target: Histone deacetylase 2 (Homo sapiens) (UniProt Q92769); assay: Inhibition of human recombinant HDAC2 expressed using baculovirus expression system using Flour- De-Lys as substrate after 3 hrs by fluorescence analysis
Histone deacetylase 2 (Homo sapiens), sequence (Q92769 whole entry): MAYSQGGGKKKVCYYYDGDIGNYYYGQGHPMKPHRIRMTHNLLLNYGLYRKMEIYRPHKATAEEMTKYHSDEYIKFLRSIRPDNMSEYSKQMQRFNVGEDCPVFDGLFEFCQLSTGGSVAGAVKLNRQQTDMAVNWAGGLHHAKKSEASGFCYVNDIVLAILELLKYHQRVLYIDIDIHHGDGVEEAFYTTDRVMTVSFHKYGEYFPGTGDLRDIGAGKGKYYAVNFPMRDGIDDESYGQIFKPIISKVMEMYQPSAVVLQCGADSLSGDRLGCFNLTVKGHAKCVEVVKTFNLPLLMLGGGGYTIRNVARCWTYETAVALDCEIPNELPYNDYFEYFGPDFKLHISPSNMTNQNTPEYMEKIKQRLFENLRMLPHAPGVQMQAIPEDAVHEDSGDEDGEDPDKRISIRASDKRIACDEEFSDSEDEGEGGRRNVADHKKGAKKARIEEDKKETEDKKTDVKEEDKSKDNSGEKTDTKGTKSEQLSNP

[4] = target: Histone deacetylase 3 (Homo sapiens) (UniProt O15379); assay: Inhibition of human recombinant HDAC3 expressed using baculovirus expression system using Flour- De-Lys as substrate after 3 hrs by fluorescence analysis
Histone deacetylase 3 (Homo sapiens), sequence (O15379 whole entry): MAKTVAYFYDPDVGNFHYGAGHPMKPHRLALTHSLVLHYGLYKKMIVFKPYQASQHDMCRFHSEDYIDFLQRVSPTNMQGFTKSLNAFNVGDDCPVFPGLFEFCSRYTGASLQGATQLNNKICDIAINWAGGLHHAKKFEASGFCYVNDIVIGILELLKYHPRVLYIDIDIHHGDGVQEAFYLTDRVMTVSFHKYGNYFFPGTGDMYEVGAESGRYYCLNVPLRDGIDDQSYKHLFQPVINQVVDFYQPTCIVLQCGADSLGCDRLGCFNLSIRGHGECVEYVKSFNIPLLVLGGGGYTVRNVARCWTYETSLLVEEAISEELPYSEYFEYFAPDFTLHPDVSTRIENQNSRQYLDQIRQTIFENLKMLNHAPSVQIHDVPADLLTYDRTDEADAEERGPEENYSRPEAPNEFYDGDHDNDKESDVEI

[5] = target: T1, Histone deacetylase 8 (Homo sapiens) (UniProt Q9BY41); assay: Inhibition of human recombinant HDAC8 expressed using baculovirus expression system using Flour- De-Lys as substrate after 3 hrs by fluorescence analysis
T1 sequence (whole entry): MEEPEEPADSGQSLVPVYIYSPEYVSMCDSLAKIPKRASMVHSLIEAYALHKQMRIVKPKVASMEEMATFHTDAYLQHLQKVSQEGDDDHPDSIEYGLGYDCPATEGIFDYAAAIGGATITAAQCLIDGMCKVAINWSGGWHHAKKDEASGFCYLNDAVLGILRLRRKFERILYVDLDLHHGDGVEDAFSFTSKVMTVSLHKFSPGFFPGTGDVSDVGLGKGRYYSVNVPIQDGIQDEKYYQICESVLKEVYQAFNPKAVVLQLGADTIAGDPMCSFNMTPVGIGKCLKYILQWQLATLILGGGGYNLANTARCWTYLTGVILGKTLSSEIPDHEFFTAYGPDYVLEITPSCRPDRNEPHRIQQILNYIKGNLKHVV

In the case of `COc1ccccc1N1CCN(S(=O)(=O)c2cccc(/C=C/C(=O)NO)c2)CC1`, the ED50 [1] is reported as 145 nM.
In the case of `O=C(/C=C/c1cccc(S(=O)(=O)N2CCN(c3ncccn3)CC2)c1)NO`, the Activity (Trypanosoma brucei) is reported as “Active”.
With `O=C(/C=C/c1cccc(S(=O)(=O)Nc2cccc(F)c2)c1)NO` the ED50 [2] was 65 nM.
With `COc1ccc(NS(=O)(=O)c2cccc(/C=C/C(=O)NO)c2)cc1` the ED50 [3] was 105 nM.
`O=C(/C=C/c1nc2ccccc2o1)NO` gave an ED50 [4] of 97 nM.
Work on `COc1ccc(N2CCN(S(=O)(=O)c3cccc(/C=C/C(=O)NO)c3)CC2)cc1` yielded an ED50 [1] of 1180 nM.
`O=C(/C=C/c1cccc(S(=O)(=O)N2CCN(c3ccccn3)CC2)c1)NO` gave an ED50 [5] of 581 nM.
